Test results: ChEMBL document CHEMBL5303711, “ECBD screening data for assay EOS300108” (2023)
Structures can show the parent of a compound that is named as a salt. Active and inactive are the calls of the source. How the calls were made is not given here.

Assay: Cytotoxicity activity against human HepG2 cells assessed by CellTiter-Glo luminescent cell viability assay.
Type: toxicity, cell-based
Set-up: assay stage confirmatory assay, source tissue liver
Settings: HepG2 cells, read-out: IC50 relative

Compound | CC50
O=C(NC1(c2ccccc2)CC1)c1c(CN2CCC(N3CCCCC3)CC2)c(-c2cccc(C(F)(F)F)c2)nc2cc(Br)ccc12 | 2.6 µM (active)
N#Cc1ccc2[nH]cc(CCCCN3CCN(c4ccc5oc(C(N)=O)cc5c4)CC3)c2c1 [VILAZODONE] | 6.1 µM (active)
CCS(=O)(=O)Nc1ccc2c(c1)/C(=C(/Nc1ccc(CN3CCCCC3)cc1)c1ccccc1)C(=O)N2 [HESPERADIN] | 0.2 µM (active)
CCOCC(=O)N1CCN(c2nc3c(s2)c(C)nn3-c2ccc(OC)cc2)CC1 | 11.5 µM (active)
Cc1c(CN2CCN(C(=O)[C@H](C)O)CC2)sc2c(N3CCOCC3)nc(-c3cnc(N)nc3)nc12 [APITOLISIB] | 1.5 µM (active)
COc1ccc(OCC(=O)N2CCN(S(=O)(=O)c3ccc4c(c3)NC(=O)C(C)O4)CC2)cc1 (centres undefined) | 5.8 µM (active)
COc1cccc(S(=O)(=O)N2CCC3(CC2)CC(CCOc2ccncc2)CCO3)c1 (centres undefined) | 13.2 µM (active)
CSc1ccc2c(c1)N(CCC1CCCCN1C)c1ccccc1S2 (centres undefined) [THIORIDAZINE] | 3.8 µM (active)
Cc1cc(NC(=O)c2cnn(-c3ccccc3)n2)cc(N2CCN(C)CC2)c1 | 6.1 µM (active)
Cc1ccccc1OCc1n(CC(=O)OC2CC(C)CCC2C(C)C)c2ccccc2[n+]1C (centres undefined) | 4.4 µM (active)
NCc1ccc(C(=O)NC2CCc3c[nH]nc3C2)cc1 (centres undefined) | 9.4 µM (active)
NC(=O)Nc1sc(-c2ccccc2)cc1C(N)=O | 7.9 µM (active)
CCN1CCN(Cc2ccc(-c3cc4c(N[C@H](C)c5ccccc5)ncnc4[nH]3)cc2)CC1 [AEE-788] | 4.1 µM (active)
Cc1cc(C)n(-c2ccc(C(=O)Nc3ncccc3O)cc2)n1 | 8.8 µM (active)
c1ccc(Cn2c(-c3ccc(OC[C@H](C4CCNCC4)n4c(-c5ccccc5)nc5ccccc54)cc3)nc3ccccc32)cc1 | 1.6 µM (active)
CN1CCCC(n2nc(Cc3ccc(Cl)cc3)c3ccccc3c2=O)CC1 (centres undefined) [AZELASTINE HYDROCHLORIDE] | 10 µM (active)
C[C@@H](NC1CCN(c2ccc(F)c(F)c2)CC1)[C@@H](O)c1ccc(O)cc1 | 14.6 µM (active)
O=C(c1cccc(S(=O)(=O)N2CCOCC2)c1)N1CCN(c2nc3ccccc3s2)CC1 | 5 µM (active)
COc1cccc(NC(=O)N2CCN(c3ccnc(N4CCCCC4)n3)CC2)c1 | 11.5 µM (active)
Nc1nc(NCCNc2ncc(-n3ccnc3)c(-c3ccc(Cl)cc3Cl)n2)ccc1[N+](=O)[O-] | 50 µM (inactive)
CC(=O)c1ccc(S(=O)(=O)Nc2cccc3cccnc23)cc1 | 3.5 µM (active)
Cc1cccc(OC[C@@H](O)CN2CCC(C(=O)N3CCc4ccccc43)CC2)c1 | 11.3 µM (active)
Cc1ccn(-c2cc(N3CCN(C(=O)Nc4ccc5c(c4)OCCO5)CC3)ncn2)n1 | 10.7 µM (active)

Compound | CC50
Clc1nss/c1=N\c1ccc(Br)cc1 | 24.2 µM (inactive)
O=C(Nc1cnn(-c2ccccn2)c1)c1ccc(O)c(Cl)c1 | 50 µM (inactive)
CC(C)Cn1ccnc1NC(=O)COc1ccc2ccccc2c1 | 1.1 µM (active)
CC(Cc1ccc(O)c(O)c1)C(C)Cc1ccc(O)c(O)c1 (centres undefined) [NORDIHYDROGUAIARETIC ACID] | 10.3 µM (inactive)
Cc1c(C(=O)Nc2ccc(N3C[C@@H](C)O[C@@H](C)C3)nc2)cccc1-c1ccc(OC(F)(F)F)cc1 [SONIDEGIB] | 37.3 µM (inactive)
COCCn1cc(C(=O)Nc2nc3ccccc3[nH]2)c2ccccc21 | 11.7 µM (inactive)
CN1CCC(CNc2ccc3ncc(-c4cccc(OC(F)(F)F)c4)n3n2)CC1 [SGI-1776] | 1.5 µM (active)
CN(C)CCNC(=O)NC[C@H]1CC[C@@H]2[C@H](O1)c1cc(C(F)(F)F)ccc1N[C@H]2c1ccccc1 | 3.5 µM (active)
CCCCCCCCC(=O)N[C@H](CN1CCCC1)[C@H](O)c1ccc2c(c1)OCCO2 | 5.1 µM (active)
COc1cccc2c1C(=O)c1c(O)c3c(c(O)c1C2=O)CC(O)(C(=O)CO)CC3OC1CC(N)C(O)C(C)O1 (centres undefined) | 0.4 µM (active)
CCC(C)NC(=O)N1CC(Oc2ccc(-c3noc(-c4ccncc4)n3)cc2)C1 (centres undefined) | 3.8 µM (active)
Cc1cc(C)cc(-n2ncc3c(OCC(=O)N4CCN(C(=O)c5ccco5)CC4)ncnc32)c1 | 3.6 µM (active)
Cc1occc1C(=O)NC1CCN(CCC(=O)c2ccccc2)CC1 | 9.5 µM (active)
CN(C)CCCN1c2ccccc2CCc2ccc(Cl)cc21 [CLOMIPRAMINE HYDROCHLORIDE] | 6.5 µM (active)
COc1ccccc1OCC(=O)Nc1cccc2ncccc12 | 9.3 µM (active)
O=C(Nc1nnc(-c2ccccc2)o1)c1cccc(S(=O)(=O)N2CCOCC2)c1 | 8.9 µM (active)
CC(C)c1cc2c(N3CCN(C4=NCC(C)(C)S4)CC3)ncnc2s1 | 10 µM (active)
COc1ccc2c(C)nc(Nc3nc(C)c(C)c(=O)[nH]3)nc2c1 | 6.7 µM (active)
Cc1c(C(=O)Nc2ncccc2O)oc2ccccc12 | 1.7 µM (active)
C[C@@H]1NC(C(=O)Nc2ccnc3ccnn23)=NN(c2ccccc2)C1=O | 13.2 µM (active)
CC(C)Oc1ccc(-c2nc(-c3cccc4c3CC[C@@H]4NCCO)no2)cc1C#N [OZANIMOD] | 3.4 µM (active)
c1cc2c(cc1C1=NN=C(NC3CC3)SC1)OCO2 | 9.1 µM (active)
COc1cc(CNCCN(C)C)ccc1OCc1ccc(F)cc1 | 13.1 µM (active)

Compound | CC50
CCOc1ccc(NC(=O)CNC[C@H]2CCCO2)cc1C | 40.3 µM (inactive)
Cc1cc(Nc2nc(N[C@@H](C)c3ncc(F)cn3)ncc2Cl)n[nH]1 [AZD-1480] | 7.9 µM (active)
C[C@@H](c1ccccc1F)N(Cn1ncc(Cl)c(Cl)c1=O)C1CC1 | 11.4 µM (active)
CC1(COc2ccc3c(c2)ncn3-c2ccc3cccc(N4CCC(N)CC4)c3n2)COC1 [CRENOLANIB] | 4.4 µM (active)
COc1ccc(NS(=O)(=O)c2ccc3onc(C(=O)N4CCCC4)c3c2)cc1OC | 0.6 µM (active)
CCN1C[C@H](CN(C)CC(=O)c2c(N)n(C3CC3)c(=O)[nH]c2=O)Oc2ccccc21 | 13.8 µM (inactive)
Cc1cc(Br)cc(C)c1OCCCCN(C)C | 9.8 µM (active)
O=C(Nc1ncccc1O)c1ccc(OCc2cn3ccccc3n2)cc1 | 6.7 µM (active)
CC(NC(=O)N1CCCN(C)C2(CCNCC2)C1)c1ccccc1Cl (centres undefined) | 4.3 µM (active)
N#CCNC(=O)c1ccc(-c2ccnc(Nc3ccc(N4CCOCC4)cc3)n2)cc1 [MOMELOTINIB] | 5.2 µM (active)
Cc1ccnn1-c1ccc(C(=O)Nc2cc(N(C)C)ccn2)cc1 | 12.1 µM (active)
c1ccc2c(OCCN3CCC(N4CCCCC4)CC3)cccc2c1 | 6.4 µM (active)
CCCc1cc(C(=O)NCC2CN(C3CCN(C4CCC4)CC3)C(=O)CO2)n(C)n1 (centres undefined) | 50 µM (inactive)
COc1ccc2c(c1)C=C(C(=O)NCc1ccc(OC)c(OC)c1)CO2 | 6.3 µM (active)
Nc1ccccc1NC(=O)CCCCCC(=O)Nc1ccccc1 | 11.7 µM (active)
Cc1ccc(-c2cn3nc(N4CCC(C(=O)NCCCN5CCOCC5)CC4)sc3n2)cc1 | 5.1 µM (active)
CC(C)(Cc1ccc2ccccc2c1)NC[C@@H](O)COc1cccc(Cl)c1C#N | 1.3 µM (active)
COc1cc2c(O)c3c(c(-c4ccc5c(c4)OCO5)c2cc1OC)C(=O)OC3 [DIPHYLLIN] | 1.4 µM (active)
O=C(COc1ccc(F)cc1)N1CCN(c2ncnc3c(F)cccc23)CC1 | 9.7 µM (active)
COc1ccc(C(=O)N[C@@H]2CN(Cc3ccccc3)C[C@H]2CN(C)C)cc1F | 12.1 µM (active)
Nc1ccc(O)c2ncccc12 | 1.4 µM (active)
CCC(C)n1ncn(-c2ccc(N3CCN(c4ccc(OCC5COC(Cn6cncn6)(c6ccc(Cl)cc6Cl)O5)cc4)CC3)cc2)c1=O (centres undefined) [ITRACONAZOLE] | 4.9 µM (active)

Compound | CC50
CCCc1ccc(-c2ccc(N(C[C@@H](N)[C@@H](C)CC)C(=O)[C@@H]3C[C@H]3c3ccccn3)cc2)cc1 | 1.6 µM (active)
O=C(Nc1cccc(Cl)c1)Nc1ncc(CCNc2ncnc3ccsc23)s1 [SNS-314 MESYLATE] | 10.1 µM (active)
C[C@@H]1COC(Nc2ccc3ncnc(Nc4ccc(OCc5nccs5)c(Cl)c4)c3c2)=N1 [VARLITINIB] | 50 µM (inactive)
CCS(=O)(=O)c1ccc(NC(=O)c2ccc(F)c(S(=O)(=O)N3CCCCC3)c2)cc1 | 6.1 µM (inactive)
CCN(C(=O)c1c[nH]n2c1nc(=O)c1ccccc12)[C@@H](C)c1ccc(F)cc1 | 5 µM (active)
CON(C)C(=O)CSc1nc2sc(C)c(C)c2c(=O)n1Cc1ccccn1 | 0.6 µM (active)
Cn1c(Nc2ccc(C(F)(F)F)cc2)nc2cc(Oc3ccnc(-c4ncc(C(F)(F)F)[nH]4)c3)ccc21 [RAF-265] | 1.5 µM (active)
COc1ccccc1OCCOCCOCCOc1ccccc1OC | 12.6 µM (inactive)
O=C(NOC[C@H](O)CO)c1ccc(F)c(F)c1Nc1ccc(I)cc1F [MIRDAMETINIB] | < 0.1 µM (active)
CCCCn1nnnc1Cn1ncc(Cl)c(Cl)c1=O | 3 µM (active)
O=c1cc(N2CCOCC2)oc2c(-c3cccc4c3sc3ccccc34)cccc12 | 7.1 µM (active)
COc1ccc(C(N)=O)c(OCc2cn3ccccc3c2C#N)c1 | 10.7 µM (inactive)
OCCn1cc(-c2ccc3c(c2)CC/C3=N\O)c(-c2ccncc2)n1 | 1.1 µM (active)
CN1CCN(c2ccc(OC(F)(F)F)c(Nc3ncc4c(n3)-c3c(c(C(N)=O)nn3CCO)CC4)c2)CC1 [ONVANSERTIB] | 11.9 µM (active)
COc1ccc(Nc2nccc(-c3cccnc3)n2)cc1 | 9.9 µM (active)
CC(=O)Nc1nc(C)c(-c2ccc(Cl)c(S(=O)(=O)NCCO)c2)s1 | 4 µM (active)
CN(C)CCN(C)CCc1ccc(Cl)c(Cl)c1 | 15.3 µM (inactive)
c1nc(N2CCN(Cc3ccc4c(c3)OCO4)CC2)c2ccsc2n1 | 5.1 µM (active)
CN1CCCN(C(=O)c2cccc(-c3ccc(/C=C4/C(=O)Nc5ccc(Cl)cc54)o3)c2)CC1 | 0.6 µM (active)
Cc1cccc(N2CCN(CC(=O)c3c(N)n(CC(C)C)c(=O)n(C)c3=O)CC2)c1C | 10.7 µM (active)
